Data set [1] relates to MC-3T3 E1 clone 4 (CL4) osteoblast cells. Briefly: Osteocalcin expression during in vitro osteoblast differentiation, various doses of analogs (Example 8). The settings on record: Table 19, 18 day interval. It is filed as cell-based. The procedure: The peptides were tested at different concentrations in a biologic assay measuring their ability to stimulate differentiation of osteoblast cells over a 18 day interval as assessed by the stimulation of osteocalcin protein synthesis. MC-3T3 E1 clone 4 (CL4) osteoblast cells were obtained from ATCC (Manassas, Va., USA). Cells were cultured in α-MEM containing 10% fetal bovine serum (FBS; Thermo Fisher Scientific, Pittsburgh, Pa., USA). After confluency, culture medium was changed to differentiation medium (DM), which contained 10% FBS plus 50 μg/mL ascorbic acid and 4 mM β-glycerol phosphate, with or without an ascending dose of the peptide. Fresh DM, with or without the peptide, was applied every 72 hours. The cell monolayers were lysed in a modified radioimmunoprecipitation assay (RIPA) buffer. Total cellular protein in the lysates was determined using BCA (Thermo Fisher Scientific, Rockford, Ill., USA). Cell proteins are separated on SDS-PAGE gel and transferred on PVDF membrane for analysis. Osteocalcin detection was performed using anti-osteocalcin antibody at 1:200 dilution (Santa Cruz Biotechnology, Inc, Santa Cruz, Calif., USA) and visualized using enhanced chemiluminescence (Thermo Fisher Scientific, Rockford, Ill., USA).

Data set [2] can be described thus: Stability of HBD1 fragments in human plasma. It is filed as in vitro ADME. The method, then: The peptides were spiked at 1 μg/mL (peptide backbone) into pre-warmed human K2EDTA plasma (at 37° C.) and incubated for up to 48 hours. Aliquots of plasma were extracted at specific time points (0, 24 and 48 hours post spike). Extraction was performed with acetonitrile:water (75:25, v/v) for HBD1 (1-13), HBD1 (1-13) with palmitic acid at the N-terminus (C16:0), HBD1 (3-11) with palmitic acid at the N-terminus (C16:0)) and HBD1 (3-11) with stearic acid at the N-terminus (C18:0) or with acetonitrile:water:formic acid (75:25:0.1, v/v/v) for HBD1 (3-11) and cyclic HBD1 (3-11). The peptides were analyzed using developed LC (C18 reverse phase column)—positive ion electrospray MS/MS methods specific to each peptide. The peak area at each time point was expressed as a percentage of the value obtained for the t=0 minutes time point.

Data set [3] relates to MC-3T3 E1 clone 4 (CL4) osteoblast cells. Briefly: Osteocalcin expression during in vitro osteoblast differentiation, acylated and cyclic analogs (Example 7). It is filed as cell-based. The conditions noted are these: Table 18; test peptide 1 μg/L; 18-21 day interval. The procedure:
Each acylated peptide was tested in a biologic assay measuring its ability to stimulate differentiation of osteoblast cells over a 18-21 day interval as assessed by the stimulation of osteocalcin protein synthesis. MC-3T3 E1 clone 4 (CL4) osteoblast cells were obtained from ATCC (Manassas, Va., USA). Cells were cultured in α-MEM containing 10% fetal bovine serum (FBS; Thermo Fisher Scientific, Pittsburgh, Pa., USA). After confluency, culture medium was changed to differentiation medium (DM), which contained 10% FBS plus 50 μg/mL ascorbic acid and 4 mM β-glycerol phosphate, with or without a test peptide (1 μg/L). Fresh DM, with or without test peptide, was applied every 72 hours. The cell monolayers were lysed in a modified radioimmunoprecipitation assay (RIPA) buffer. Total cellular protein in the lysates was determined using BCA (Thermo Fisher Scientific, Rockford, Ill., USA). Cell proteins are separated on SDS-PAGE gel and transferred on PVDF membrane for analysis. Osteocalcin detection was performed using anti-osteocalcin antibody at 1:200 dilution (Santa Cruz Biotechnology, Inc, Santa Cruz, Calif., USA) and visualized using enhanced chemiluminescence (Thermo Fisher Scientific, Rockford, Ill., USA).
In a separate experiment, the effect of cyclization was examined on of the HBD1 (3-11) peptide. The cyclic HBD1 (3-11) was synthetized and tested on the in vitro osteoblast differentiation assay.

The nature of data set [4]: Pharmacokinetics of acylated analogs in male Sprague Dawley rats after subcutaneous injection (Example 11). It is filed as in vivo. The arrangement: AUC(0-t): concentration or dose not given beside the values. The conditions noted are these: sc, rat, Table 24. The method, then: The peptides were reconstituted in saline (0.9% NaCl). Three male Sprague Dawley rats (approximately 6 weeks of age) were used per group. Subcutaneous doses were administered into the right flank of each animal […]. Following dosing, serial whole blood samples (ca. 0.3 mL) were collected from retro-orbital sinus into K2EDTA treated containers. Following each blood sample collection, samples were placed into a cooling block at 4° C. Samples were collected prior to dosing then at 15 and 30 minutes then 1, 2, 4, 6, 8 and 24 hours post dose for subcutaneous injection. Blood samples were centrifuged at 3500×rpm for 10 minutes at 4° C. and resultant plasma aspirated off into clean fully, labelled tubes. Plasma samples were snap frozen following aspiration then stored at −80° C. The peptides were extracted with acetonitrile:water (75:25, v/v) and analyzed using developed LC-MS/MS methods as described in Example 9. The limits of detection of these methods are 0.003 nmol/mL for HBD1 (1-13) with palmitic acid at the N-terminus (C16:0), 0.0008 nmol/mL for HBD1 (3-11) with palmitic acid at the N-terminus (C16:0), 0.0070 nmol/mL for HBD1 (3-11) with stearic acid at the N-terminus (C18:0), and 0.0015 nmol/mL for HBD1 (3-11) with myristic acid at the N-terminus (C14:0), HBD1 (3-11) with arachidic acid at the N-terminus (C20:0), HBD1 (3-11) with palmitic diacid at the N-terminus (C16:0-diacid), HBD1 (3-11) with palmitic acid at the C-terminus (C16:0). All values below these limits of quantification were considered as zero.

Residues, ends and D or L forms follow the SMILES beside them. *: point of attachment. Stearoyl = CCCCCCCCCCCCCCCCCC(=O)*

Regarding `CCCCCCCCCCCCCCCCCC(=O)N[C@@H](Cc1c[nH]cn1)C(=O)N[C@@H](CC(C)C)C(=O)NCC(=O)N[C@@H](CC(C)C)C(=O)N[C@@H](CCC(=O)O)C(=O)N[C@@H](CCC(=O)O)C(=O)N1CCC[C@H]1C(=O)N[C@@H](CCCCN)C(=O)N[C@@H](CCCCN)C(=O)O` [compound 73] (Stearoyl-HLGLEEPKK-OH), in data set [1] (dose 1.0 μM), the “Fold increase vs DM ± SD” value amounted to 3.46 ± 0.47 fold. Also, the “Fold increase vs DM ± SD” value in data set [1] (dose 2.0 μM) is listed as 4.48 ± 0.07 fold. Further, in data set [1] (dose 3.0 μM), the “Fold increase vs DM ± SD” value stood at 5.66 ± 0.45 fold. The “stability in human plasma (in words)” value in data set [2] (24 and 48 hours incubation at 37° C.) is reported as “similar”. Further, the fraction remaining (usually what is left of the initial amount, in per cent) at 24 h, 1 μg/mL in data set [2] (human, human K2EDTA plasma, spiked at 1 μg/mL, 37° C., 24 hours, read-out: Remaining parent peptide in human plasma 24 hours post spike) stood at 89%. In data set [2] (human, human K2EDTA plasma, spiked at 1 μg/mL, 37° C., 48 hours, read-out: Remaining parent peptide in human plasma 48 hours post spike), the fraction remaining at 48 h, 1 μg/mL came out at 91%. For the same compound, the “Fold increase vs DM ± SE” value in data set [3] turned out to be 2.93 ± 0.16 fold. In addition, in data set [4] (male, Sprague Dawley, plasma), the area under the curve AUC(0-t) – broadly, exposure summed from dosing to a finite time, without extrapolation to infinity – came to 4.81 µM·h; the Cmax – broadly, the maximum level reached in the sampled fluid or tissue – came out at 540 nM; the Tmax (in general, the time at which the peak concentration occurs) worked out at 4 h. Moreover, the “Tlast (last time point with detectable peptide)” value in data set [4] is 8 h.

The record behind these values is patent publication US20190352358A1, “COMPOUNDS, COMPOSITIONS AND USES THEREOF FOR IMPROVEMENT OF BONE DISORDERS” (ALIZE PHARMA III SAS, priority 2017, published 2019).
